Measured values published in paper PMC5053523, “In Vitro Antibacterial Activity of Rhodanine Derivatives against Pathogenic Clinical Isolates” (PLoS ONE, 2016).
In brackets after ≈: the same amount, converted by molar mass. Like-named read-outs stand apart in the source and are kept apart here.

How the values were obtained:
Pseudomonas aeruginosa [1] = experiment: MIC with/without PMBN, Pseudomonas aeruginosa; format: cell-based
Procedure, shortened: (§1)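 MIC of rhodanines and control antibiotics measured against Gram-negative bacteria in the presence of a sub-inhibitory concentration of colistin or polymixin B nonapeptide (PMBN). Activity was also tested against E. coli SM1411ΔacrAB, which lacks the AcrAB multidrug efflux pump.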

Acinetobacter baumannii [2] = experiment: MIC with/without PMBN, Acinetobacter baumannii; format: cell-based
Procedure, shortened: as §1

[3] = test system: vancomycin resistant enterococci (VRE); experiment: Broth microdilution MIC50/MIC90, VRE panel; format: cell-based; conditions: 10 VRE strains; for MIC90: read-out: MIC 90; for MIC50: read-out: MIC 50
[4] = test system: vancomycin resistant enterococci (VRE) E. faecalis; experiment: Broth microdilution MIC/MBC, VRE E. faecalis; format: cell-based; conditions: for MIC: read-out: MIC
Klebsiella pneumoniae = experiment: MIC with/without PMBN, Klebsiella pneumoniae; format: cell-based
Procedure, shortened: as §1

Salmonella Typhimurium [5] = experiment: MIC with/without sub-MIC colistin, Salmonella Typhimurium; format: cell-based
Procedure, shortened: as §1

Pseudomonas aeruginosa [6] = experiment: MIC with/without sub-MIC colistin, Pseudomonas aeruginosa; format: cell-based
Procedure, shortened: as §1

Salmonella Typhimurium [7] = experiment: MIC with/without PMBN, Salmonella Typhimurium; format: cell-based
Procedure, shortened: as §1

[8] = test system: established methicillin-resistant S. epidermidis biofilm (ATCC 35984, NRS 101); experiment: Microtiter dish biofilm eradication assay (crystal violet); format: cell-based, Staphylococcus epidermidis; conditions: 24 h
Protocol: We used S. epidermidis ATCC 35984 (NRS 101), a high-slime producer isolated in septicemic patients, with colonized intravascular catheters from Tennessee, USA [10]. This strain is a multi-drug resistant strain, showing resistance to methicillin, erythromycin, kanamycin, gentamicin, clindamycin and trimethoprim. Briefly, an overnight culture of biofilm—producing MRSE was diluted 1:100 in a fresh medium containing 1% glucose in a 96-well tissue-culture treated plate. Bacteria were incubated at 37°C for 24 h to permit the formation of an adherent biofilm. The medium was removed and the biofilm was washed with PBS. Antibacterial drugs (vancomycin and linezolid) and rhodanine 2, at indicated concentration, were added and incubated again at 37°C for 24 h. Plates were washed again and biofilms were stained with 0.1% (wt/vol) crystal violet. Plates were washed with PBS, air-dried and biofilm mass was dissolved using 95% ethanol. The intensity of crystal violet was measured using a micro plate reader (SpectraMax i3x; Molecular Devices, Sunnyvale, CA, USA). Data are presented as the percent biofilm mass reduction in treated groups in relation to untreated wells.

[9] = test system: methicillin-resistant Staphylococcus aureus (MRSA); experiment: Broth microdilution MIC/MBC, MRSA; format: cell-based
Bacillus anthracis = experiment: microbe, parasite or virus in culture; format: cell-based
Acinetobacter baumannii [10] = experiment: Broth microdilution MIC, Acinetobacter baumannii; format: cell-based
P. aeruginosa = experiment: Broth microdilution MIC, P. aeruginosa; format: cell-based; conditions: Pseudomonas aeruginosa
MRSA USA300 = experiment: MIC against MRSA USA300 with and without 4% human serum albumin; format: cell-based, Staphylococcus aureus; conditions: Staphylococcus aureus, read-out: MIC against MRSA USA300
Procedure, shortened: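 Broth microdilution MIC per CLSI against MRSA USA300, run in tryptic soy broth alone and with 4% human serum albumin. MIC is the lowest concentration inhibiting growth.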

K. pneumoniae = experiment: Broth microdilution MIC, K. pneumoniae; format: cell-based
[11] = Pseudomonas aeruginosa ATCC 9721, PMBN (+) 4 μg/mL, read-out: MIC
[12] = Pseudomonas aeruginosa, ATCC9721
[13] = Acinetobacter baumannii ATCC BAA747, PMBN (+) 4 μg/mL, read-out: MIC
[14] = Acinetobacter baumannii ATCC BAA19606, PMBN (+) 4 μg/mL, read-out: MIC
[15] = Acinetobacter baumannii, ATCCBAA747
[16] = Acinetobacter baumannii, ATCCBAA19606
[17] = E. faecalis NR31972 Strain SF 28073
[18] = Klebsiella pneumoniae ATCC BAA 1706, PMBN (+) 4 μg/mL
[19] = Klebsiella pneumoniae ATCC BAA 2146, PMBN (+) 4 μg/mL
[20] = Salmonella Typhimurium ATCC 700720, colistin (+) […], read-out: MIC
[21] = Salmonella enterica, ATCC 700720 / TYPHIMURIUM
[22] = Pseudomonas aeruginosa ATCC 921, colistin (+) […], read-out: MIC
[23] = Pseudomonas aeruginosa, ATCC921
[24] = Salmonella Typhimurium ATCC 700720, PMBN (+) 4 μg/mL, read-out: MIC

SMILES: CC(=O)NC[C@H]1CN(c2ccc(N3CCOCC3)c(F)c2)C(=O)O1 [Linezolid, linezolid, reference compound]
- MIC (Pseudomonas aeruginosa [1]; [11]): 16 µM (≈ 5.4 µg/mL)
- MIC (Pseudomonas aeruginosa [1]; [12]): > 128 µM
- MIC (Acinetobacter baumannii [2]; [13]): >64 µM
- MIC (Acinetobacter baumannii [2]; [14]): >64 µM
- MIC (Acinetobacter baumannii [2]; [15]): > 128 µM
- MIC (Acinetobacter baumannii [2]; [16]): > 128 µM
- MIC90 ([3]; Enterococcus, VRE): 2 µM (≈ 0.675 µg/mL)
- MIC50 ([3]; Enterococcus): 2 µM (≈ 0.675 µg/mL)
- MBC ([4]; E. faecalis ERV103 HM-934): > 64 µM
- MIC ([4]; E. faecalis ERV103 HM-934): 2 µM (≈ 0.675 µg/mL)
- MBC [4, 17]: 32 µM (≈ 10.8 µg/mL)
- MIC [4, 17]: 2 µM (≈ 0.675 µg/mL)
- MBC ([4]; E. faecalis R712 HM-335): 32 µM (≈ 10.8 µg/mL)
- MIC ([4]; E. faecalis R712 HM-335): 2 µM (≈ 0.675 µg/mL)
- MBC ([4]; E. faecalis S613 HM-334): 64 µM (≈ 21.6 µg/mL)
- MIC ([4]; E. faecalis S613 HM-334): 2 µM (≈ 0.675 µg/mL)
- MBC ([4]; E. faecalis TX0104 HM-201): > 64 µM
- MIC ([4]; E. faecalis TX0104 HM-201): 2 µM (≈ 0.675 µg/mL)
- MIC (Klebsiella pneumoniae; [18]): >64 µM
- MIC (Klebsiella pneumoniae; [19]): >64 µM
- MIC (Klebsiella pneumoniae; Klebsiella pneumoniae, BAA1706): > 128 µM
- MIC (Klebsiella pneumoniae; Klebsiella pneumoniae, BAA2146): > 128 µM
- MIC (Salmonella Typhimurium [5]; [20]): >64 µM
- MIC (Salmonella Typhimurium [5]; [21]): > 128 µM
- MIC (Pseudomonas aeruginosa [6]; [22]): 64 µM (≈ 21.6 µg/mL)
- MIC (Pseudomonas aeruginosa [6]; [23]): > 128 µM
- MIC (Salmonella Typhimurium [7]; [24]): 64 µM (≈ 21.6 µg/mL)
- MIC (Salmonella Typhimurium [7]; [21]): > 128 µM
- biofilm mass reduction ([8]; high concentrations (up to 8 X MIC)): not significantly decreased

SMILES: O=C(O)[C@H](Cc1ccccc1)N1C(=O)/C(=C/c2cccc(-c3ccc(Cl)c(Cl)c3)c2)SC1=S [Rh 2]
- MIC50 ([9]; 11 MRSA strains): 4 µM (≈ 2.06 µg/mL)
- MIC90 ([9]; 11 MRSA strains): 4 µM (≈ 2.06 µg/mL)
- MBC ([9]; MRSA NRS 1): 4 µM (≈ 2.06 µg/mL)
- MIC ([9]; MRSA NRS 1): 4 µM (≈ 2.06 µg/mL)
- MBC ([9]; MRSA NRS 19): 4 µM (≈ 2.06 µg/mL)
- MIC ([9]; MRSA NRS 19): 4 µM (≈ 2.06 µg/mL)
- MBC ([9]; MRSA NRS 37): 4 µM (≈ 2.06 µg/mL)
- MIC ([9]; MRSA NRS 37): 4 µM (≈ 2.06 µg/mL)
- MBC ([9]; MRSA NRS 107): 16 µM (≈ 8.23 µg/mL)
- MIC ([9]; MRSA NRS 107): 8 µM (≈ 4.12 µg/mL)
- MBC ([9]; MRSA NRS 119): 4 µM (≈ 2.06 µg/mL)
- MIC ([9]; MRSA NRS 119): 4 µM (≈ 2.06 µg/mL)
- MBC ([9]; MRSA NRS 382): 4 µM (≈ 2.06 µg/mL)
- MIC ([9]; MRSA NRS 382): 4 µM (≈ 2.06 µg/mL)
- MBC ([9]; MRSA NRS 383): 4 µM (≈ 2.06 µg/mL)
- MIC ([9]; MRSA NRS 383): 4 µM (≈ 2.06 µg/mL)
- MBC ([9]; MRSA NRS 384): 16 µM (≈ 8.23 µg/mL)
- MIC ([9]; MRSA NRS 384): 4 µM (≈ 2.06 µg/mL)
- MBC ([9]; MRSA NRS 385): 4 µM (≈ 2.06 µg/mL)
- MIC ([9]; MRSA NRS 385): 4 µM (≈ 2.06 µg/mL)
- MBC ([9]; MRSA NRS 386): 8 µM (≈ 4.12 µg/mL)
- MIC ([9]; MRSA NRS 386): 4 µM (≈ 2.06 µg/mL)
- MBC ([9]; MRSA NRS 387): 4 µM (≈ 2.06 µg/mL)
- MIC ([9]; MRSA NRS 387): 4 µM (≈ 2.06 µg/mL)
- MBC (Bacillus anthracis; Bacillus anthracis AMES35): 2 µM (≈ 1.03 µg/mL)
- MIC (Bacillus anthracis; Bacillus anthracis AMES35): 2 µM (≈ 1.03 µg/mL)
- MBC (Bacillus anthracis; Bacillus anthracis UM23): 2 µM (≈ 1.03 µg/mL)
- MIC (Bacillus anthracis; Bacillus anthracis UM23): 2 µM (≈ 1.03 µg/mL)
- MBC (Bacillus anthracis; Bacillus anthracis Weybridge): 2 µM (≈ 1.03 µg/mL)
- MIC (Bacillus anthracis; Bacillus anthracis Weybridge): 2 µM (≈ 1.03 µg/mL)
- MIC (Pseudomonas aeruginosa [1]; [11]): >64 µM
- MIC (Pseudomonas aeruginosa [1]; [12]): > 128 µM
- MIC (Acinetobacter baumannii [2]; [13]): >64 µM
- MIC (Acinetobacter baumannii [2]; [14]): >64 µM
- MIC (Acinetobacter baumannii [2]; [15]): > 128 µM
- MIC (Acinetobacter baumannii [2]; [16]): > 128 µM
- MIC90 [3]: 4 µM (≈ 2.06 µg/mL)
- MIC90 ([3]; Enterococcus, VRE): 8 µM (≈ 4.12 µg/mL)
- MIC50 ([3]; Enterococcus): 4 µM (≈ 2.06 µg/mL)
- MBC ([4]; E. faecalis ERV103 HM-934): 4 µM (≈ 2.06 µg/mL)
- MIC ([4]; E. faecalis ERV103 HM-934): 4 µM (≈ 2.06 µg/mL)
- MBC [4, 17]: 32 µM (≈ 16.5 µg/mL)
- MIC [4, 17]: 4 µM (≈ 2.06 µg/mL)
- MBC ([4]; E. faecalis R712 HM-335): 4 µM (≈ 2.06 µg/mL)
- MIC ([4]; E. faecalis R712 HM-335): 4 µM (≈ 2.06 µg/mL)
- MBC ([4]; E. faecalis S613 HM-334): 4 µM (≈ 2.06 µg/mL)
- MIC ([4]; E. faecalis S613 HM-334): 4 µM (≈ 2.06 µg/mL)
- MBC ([4]; E. faecalis TX0104 HM-201): 4 µM (≈ 2.06 µg/mL)
- MIC ([4]; E. faecalis TX0104 HM-201): 4 µM (≈ 2.06 µg/mL)
- MIC (Klebsiella pneumoniae; [18]): >64 µM
- MIC (Klebsiella pneumoniae; [19]): >64 µM
- MIC (Klebsiella pneumoniae; Klebsiella pneumoniae, BAA1706): > 128 µM
- MIC (Klebsiella pneumoniae; Klebsiella pneumoniae, BAA2146): > 128 µM
- MIC (Acinetobacter baumannii [10]; ATCC13345): > 128 µM
- MIC (Acinetobacter baumannii [10]; ATCC17786): > 128 µM
- MIC (P. aeruginosa; ATCC9721): > 128 µM
- MIC (P. aeruginosa; ATCC15442): > 128 µM
- MIC (Salmonella Typhimurium [5]; [20]): >64 µM
- MIC (Salmonella Typhimurium [5]; [21]): > 128 µM
- MIC (MRSA USA300; 24 h, Media TSB + 4% HSA): > 64 µM
- MIC (MRSA USA300; Media TSB): 4 µM (≈ 2.06 µg/mL)
- MIC (Pseudomonas aeruginosa [6]; [22]): >64 µM
- MIC (Pseudomonas aeruginosa [6]; [23]): > 128 µM
- MIC (K. pneumoniae; K. pneumoniae NR-15417): >128 µM
- MIC (K. pneumoniae; Klebsiella pneumoniae): > 128 µM
- MIC (Salmonella Typhimurium [7]; [24]): >128 µM
- MIC (Salmonella Typhimurium [7]; [21]): > 128 µM
- biofilm mass reduction ([8]; at 4 times its MIC, relative to untreated wells): more than 35%
- biofilm mass reduction ([8]; at 8 times its MIC, relative to untreated wells): > 45%
